From patent publication US9422289B2, “Use of pteridine derivatives for the treatment of increased intracranial pressure, secondary ischemia, and disorders associated with an increased level of cytotoxic reactive oxygen species” (VASOPHARM GMBH, priority 2003, dated 2016)

Assays:
[1] = tested on: SK^+Ca channel; assay: Radioligand binding, Cerep 863-3; conditions: 10 µM
[2] = tested on: isolated rat basilar arteries (BA); assay: Contractile action in isolated rat basilar arteries
[3] = tested on: GABAA; assay: Radioligand binding, Cerep 804-1; conditions: 10 µM
[4] = tested on: IP3; assay: Radioligand binding, Cerep 861-5; conditions: 10 µM
[5] = tested on: ATPase (Na^+/K^+); assay: Cell biology assay, Cerep 760; type: biochemical; conditions: 10 µM
[6] = biological target: PAF (Oryctolagus cuniculus, UniProt G1TEI7); assay: Radioligand binding, Cerep 830; conditions: 10 µM
[7] = tested on: isolated rat middle cerebral arteries (MCA); assay: Contractile action in isolated rat middle cerebral arteries
[8] = tested on: Ca^2+ channel (L, DHP site); type: binding; conditions: 10 µM
[9] = tested on: PDGF; assay: Radioligand binding, Cerep 881; conditions: 10 µM
[10] = biological target: M1 (h) (Homo sapiens, UniProt P11229); type: binding; conditions: 10 µM
[11] = biological target: T1, Vitamin D3 (h) (Homo sapiens, UniProt P11473); type: binding; conditions: 10 µM
T1 construct: Cerep (assay catalogue, edition 2002) 848-h

[12] = tested on: Cell proliferation (PDGF-stimulated Balb/c 3T3); assay: Cell biology assay, Cerep 791-3; type: cell-based; conditions: 10 µM
[13] = tested on: NMDA; assay: Radioligand binding, Cerep 895-3; conditions: 10 µM
[14] = biological target: DA uptake (Rattus norvegicus, UniProt P23977); type: cell-based; conditions: 10 µM
[15] = biological target: 5-HT1B (Rattus norvegicus, UniProt P28564); type: binding; conditions: 10 µM
[16] = biological target: T2, 5-HT2B (h) (Homo sapiens, UniProt P41595); type: binding; conditions: 10 µM
T2 construct: Cerep (assay catalogue, edition 2002) 808-2bh

[17] = biological target: β2 (h) (Homo sapiens, UniProt P07550); type: binding; conditions: 10 µM
[18] = tested on: Ca^2+ channel (L, verapamil site); assay: Radioligand binding, Cerep 861-L3; conditions: 10 µM
[19] = tested on: L-type Ca^2+ channel (stimulated); assay: Cell biology assay, Cerep 740-1; type: cell-based; conditions: 10 µM
[20] = biological target: ETA (h) (Homo sapiens, UniProt P25101); type: binding; conditions: 10 µM
[21] = biological target: AT1 (h) (Homo sapiens, UniProt P30556); assay: Radioligand binding, Cerep 821-1h; conditions: 10 µM
[22] = tested on: Na^+ channel (h) (stimulated); assay: Cell biology assay, Cerep 739-1; type: cell-based, human; conditions: 10 µM
[23] = biological target: AT2 (h) (Homo sapiens, UniProt P50052); type: binding; conditions: 10 µM
[24] = tested on: AMPA; assay: Radioligand binding, Cerep 895-1; conditions: 10 µM
[25] = biological target: 5-HT uptake (Rattus norvegicus, UniProt P31652); type: cell-based; conditions: 10 µM
[26] = tested on: Kainate; assay: Radioligand binding, Cerep 895-2; conditions: 10 µM
[27] = biological target: ETB (h) (Homo sapiens, UniProt P24530); assay: Radioligand binding, Cerep 825-2h; conditions: 10 µM
[28] = tested on: β-adrenoceptor -G protein coupling; type: cell-based; conditions: 10 µM
[29] = biological target: H2 (Cavia porcellus, UniProt P47747); type: binding; conditions: 10 µM
[30] = biological target: H1 (central) (Cavia porcellus, UniProt P31389); type: binding; conditions: 10 µM
[31] = biological target: M2 (h) (Homo sapiens, UniProt P08172); type: binding; conditions: 10 µM
[32] = biological target: D2 (h) (Homo sapiens, UniProt P14416); type: binding; conditions: 10 µM
[33] = biological target: β1 (h) (Homo sapiens, UniProt P08588); type: binding; conditions: 10 µM
[34] = biological target: M3 (h) (Homo sapiens, UniProt P20309); assay: Radioligand binding, Cerep 806-3h; conditions: 10 µM
[35] = biological target: D1 (h) (Homo sapiens, UniProt P21728); type: binding; conditions: 10 µM
[36] = tested on: Na^+/K^+ ATPase (pump); assay: Cell biology assay, Cerep 734; type: cell-based; conditions: 10 µM
[37] = tested on: Cell proliferation (h) (EGF-stimulated A-431); assay: cells; type: cell-based, human; conditions: 10 µM
[38] = tested on: GABA (non-selective); type: binding; conditions: 10 µM
[39] = biological target: T3, NOS inducible (whole cells/spectrophoto.) (Mus musculus, UniProt P29477); assay: Cell biology assay, Cerep 766-i1; type: cell-based; conditions: 10 µM
T3 construct: Cerep (assay catalogue, edition 2002) 766-i1

[40] = biological target: T4, 5-HT2A (h) (Homo sapiens, UniProt P28223); assay: Radioligand binding, Cerep 808-2h; conditions: 10 µM
T4 construct: Cerep (assay catalogue, edition 2002) 808-2h

[41] = tested on: Ca^2+-ATPase (pump); assay: Cell biology assay, Cerep 735; type: cell-based; conditions: 10 µM
[42] = biological target: T5, Phosphodiesterase V (h) (Homo sapiens, UniProt O76074); type: biochemical; conditions: 10 µM
T5 construct: Cerep (assay catalogue, edition 2002) 752-e

[43] = tested on: α1 (non-selective); assay: Radioligand binding, Cerep 802-1a; conditions: 10 µM
[44] = biological target: NE uptake (Rattus norvegicus, UniProt Q63380); type: cell-based; conditions: 10 µM
[45] = biological target: K^+ATP channel (Rattus norvegicus, UniProt Q09429); assay: Radioligand binding, Cerep 863-1; conditions: 10 µM
[46] = tested on: K^+V channel; assay: Radioligand binding, Cerep 863-2; conditions: 10 µM
[47] = biological target: GABAB (Rattus norvegicus, UniProt Q9Z0U4); type: binding; conditions: 10 µM
[48] = tested on: 5-HT1D; assay: Radioligand binding, Cerep 808-1d; conditions: 10 µM
[49] = tested on: Estrogen (ER); assay: Radioligand binding, Cerep 813; conditions: 10 µM
[50] = tested on: β-adrenoceptor - G protein coupling; type: cell-based
[51] = tested on: α2 (non-selective); assay: Radioligand binding, Cerep 802-1b; conditions: 10 µM
[52] = biological target: Acetylcholinesterase (h) (Homo sapiens, UniProt P22303); type: biochemical; conditions: 10 µM
[53] = biological target: T6, NOS constitutive (h) (endothelial) (Homo sapiens, UniProt P29474); type: biochemical; conditions: 10 µM
T6 construct: Cerep (assay catalogue, edition 2002) 766-c

[54] = tested on: Ca^2+ channel (L, diltiazem site); type: binding; conditions: 10 µM
[55] = biological target: Phosphodiesterase III (h) (Homo sapiens, UniProt Q14432); assay: Cell biology assay, Cerep 752-ch; type: biochemical; conditions: 10 µM
[56] = tested on: Protein kinase A (stimulated); assay: Cell biology assay, Cerep 706-2; type: cell-based; conditions: 10 µM
[57] = biological target: EGF (h) (Homo sapiens, UniProt P00533); assay: Radioligand binding, Cerep […]; conditions: 10 µM

T4 sequence (P28223 whole entry): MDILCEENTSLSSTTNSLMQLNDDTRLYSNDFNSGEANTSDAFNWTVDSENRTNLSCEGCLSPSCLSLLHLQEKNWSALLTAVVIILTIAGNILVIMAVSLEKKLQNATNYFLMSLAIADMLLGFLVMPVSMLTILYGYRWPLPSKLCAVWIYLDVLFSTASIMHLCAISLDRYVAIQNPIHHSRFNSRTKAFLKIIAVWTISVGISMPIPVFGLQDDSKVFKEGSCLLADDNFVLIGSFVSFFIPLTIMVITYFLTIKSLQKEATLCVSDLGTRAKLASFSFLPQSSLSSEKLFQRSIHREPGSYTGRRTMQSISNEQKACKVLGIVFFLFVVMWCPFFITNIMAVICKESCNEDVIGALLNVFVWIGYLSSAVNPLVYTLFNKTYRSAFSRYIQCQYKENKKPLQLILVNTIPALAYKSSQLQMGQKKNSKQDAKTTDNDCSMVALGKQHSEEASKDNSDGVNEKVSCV
Sequence of D1 (h) (P21728 whole entry): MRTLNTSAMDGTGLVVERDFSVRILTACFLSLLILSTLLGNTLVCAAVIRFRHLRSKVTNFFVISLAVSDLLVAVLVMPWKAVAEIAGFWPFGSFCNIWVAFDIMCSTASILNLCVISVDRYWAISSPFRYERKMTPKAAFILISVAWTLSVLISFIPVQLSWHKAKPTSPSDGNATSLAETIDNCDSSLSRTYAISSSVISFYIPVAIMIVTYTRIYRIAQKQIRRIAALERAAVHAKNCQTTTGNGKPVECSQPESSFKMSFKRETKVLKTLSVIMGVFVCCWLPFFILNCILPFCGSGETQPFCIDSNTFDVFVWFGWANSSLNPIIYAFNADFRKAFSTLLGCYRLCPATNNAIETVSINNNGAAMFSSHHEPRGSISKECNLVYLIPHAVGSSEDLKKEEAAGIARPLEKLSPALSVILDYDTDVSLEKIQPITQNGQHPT
Sequence of ETA (h) (P25101 21-427): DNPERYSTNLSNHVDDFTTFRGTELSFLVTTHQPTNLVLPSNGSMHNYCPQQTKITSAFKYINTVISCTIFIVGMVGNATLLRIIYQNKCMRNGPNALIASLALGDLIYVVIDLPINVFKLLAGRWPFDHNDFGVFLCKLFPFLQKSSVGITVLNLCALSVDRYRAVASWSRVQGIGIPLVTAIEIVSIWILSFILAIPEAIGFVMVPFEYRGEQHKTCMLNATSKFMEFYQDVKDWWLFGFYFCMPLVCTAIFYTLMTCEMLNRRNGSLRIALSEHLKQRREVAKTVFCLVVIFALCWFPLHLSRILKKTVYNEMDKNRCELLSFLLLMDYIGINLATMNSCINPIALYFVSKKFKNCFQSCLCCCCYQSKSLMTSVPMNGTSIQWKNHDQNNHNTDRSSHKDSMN
Sequence of NE uptake (Q63380 entry or part of it): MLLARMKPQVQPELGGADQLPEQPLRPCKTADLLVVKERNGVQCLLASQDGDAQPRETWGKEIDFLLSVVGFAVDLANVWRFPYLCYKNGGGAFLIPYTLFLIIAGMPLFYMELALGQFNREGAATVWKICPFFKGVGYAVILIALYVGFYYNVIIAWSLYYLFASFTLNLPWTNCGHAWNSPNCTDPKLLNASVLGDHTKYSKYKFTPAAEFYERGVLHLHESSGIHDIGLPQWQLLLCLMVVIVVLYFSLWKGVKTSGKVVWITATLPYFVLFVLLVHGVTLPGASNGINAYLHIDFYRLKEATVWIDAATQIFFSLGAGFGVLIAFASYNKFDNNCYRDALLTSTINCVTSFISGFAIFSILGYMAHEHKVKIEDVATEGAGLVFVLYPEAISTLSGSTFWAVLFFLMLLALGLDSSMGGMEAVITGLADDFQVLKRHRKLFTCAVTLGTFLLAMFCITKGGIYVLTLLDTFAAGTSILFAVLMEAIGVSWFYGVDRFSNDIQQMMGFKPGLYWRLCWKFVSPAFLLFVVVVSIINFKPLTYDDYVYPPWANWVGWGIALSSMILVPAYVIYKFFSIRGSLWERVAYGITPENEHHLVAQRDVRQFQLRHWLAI
Sequence of DA uptake (P23977 whole entry): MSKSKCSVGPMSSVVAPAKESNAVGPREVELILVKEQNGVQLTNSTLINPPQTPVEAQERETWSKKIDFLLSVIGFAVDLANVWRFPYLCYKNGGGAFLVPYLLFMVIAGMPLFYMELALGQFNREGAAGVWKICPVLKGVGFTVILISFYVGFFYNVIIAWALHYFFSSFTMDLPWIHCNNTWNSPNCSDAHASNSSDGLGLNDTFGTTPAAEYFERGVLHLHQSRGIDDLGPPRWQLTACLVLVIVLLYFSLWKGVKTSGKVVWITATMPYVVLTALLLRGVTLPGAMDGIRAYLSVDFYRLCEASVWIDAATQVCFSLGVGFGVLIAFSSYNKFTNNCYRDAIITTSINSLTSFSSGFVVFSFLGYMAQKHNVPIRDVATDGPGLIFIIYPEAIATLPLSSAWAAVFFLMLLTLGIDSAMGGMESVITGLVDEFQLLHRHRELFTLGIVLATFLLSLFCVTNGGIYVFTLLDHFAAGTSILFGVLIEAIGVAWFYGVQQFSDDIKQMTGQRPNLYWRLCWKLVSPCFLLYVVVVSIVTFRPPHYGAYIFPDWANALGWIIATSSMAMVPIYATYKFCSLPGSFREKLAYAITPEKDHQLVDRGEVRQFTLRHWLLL
Sequence of PAF (G1TEI7 1-342): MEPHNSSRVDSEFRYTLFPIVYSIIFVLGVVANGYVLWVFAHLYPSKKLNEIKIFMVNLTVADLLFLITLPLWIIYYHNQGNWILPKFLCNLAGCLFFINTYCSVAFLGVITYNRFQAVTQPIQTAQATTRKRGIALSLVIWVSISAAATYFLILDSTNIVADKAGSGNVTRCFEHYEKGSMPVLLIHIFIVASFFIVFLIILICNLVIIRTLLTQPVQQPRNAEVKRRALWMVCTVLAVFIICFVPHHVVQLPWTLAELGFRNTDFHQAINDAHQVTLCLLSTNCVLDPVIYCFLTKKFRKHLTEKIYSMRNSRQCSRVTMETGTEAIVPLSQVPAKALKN
T3 sequence (P29477 whole entry): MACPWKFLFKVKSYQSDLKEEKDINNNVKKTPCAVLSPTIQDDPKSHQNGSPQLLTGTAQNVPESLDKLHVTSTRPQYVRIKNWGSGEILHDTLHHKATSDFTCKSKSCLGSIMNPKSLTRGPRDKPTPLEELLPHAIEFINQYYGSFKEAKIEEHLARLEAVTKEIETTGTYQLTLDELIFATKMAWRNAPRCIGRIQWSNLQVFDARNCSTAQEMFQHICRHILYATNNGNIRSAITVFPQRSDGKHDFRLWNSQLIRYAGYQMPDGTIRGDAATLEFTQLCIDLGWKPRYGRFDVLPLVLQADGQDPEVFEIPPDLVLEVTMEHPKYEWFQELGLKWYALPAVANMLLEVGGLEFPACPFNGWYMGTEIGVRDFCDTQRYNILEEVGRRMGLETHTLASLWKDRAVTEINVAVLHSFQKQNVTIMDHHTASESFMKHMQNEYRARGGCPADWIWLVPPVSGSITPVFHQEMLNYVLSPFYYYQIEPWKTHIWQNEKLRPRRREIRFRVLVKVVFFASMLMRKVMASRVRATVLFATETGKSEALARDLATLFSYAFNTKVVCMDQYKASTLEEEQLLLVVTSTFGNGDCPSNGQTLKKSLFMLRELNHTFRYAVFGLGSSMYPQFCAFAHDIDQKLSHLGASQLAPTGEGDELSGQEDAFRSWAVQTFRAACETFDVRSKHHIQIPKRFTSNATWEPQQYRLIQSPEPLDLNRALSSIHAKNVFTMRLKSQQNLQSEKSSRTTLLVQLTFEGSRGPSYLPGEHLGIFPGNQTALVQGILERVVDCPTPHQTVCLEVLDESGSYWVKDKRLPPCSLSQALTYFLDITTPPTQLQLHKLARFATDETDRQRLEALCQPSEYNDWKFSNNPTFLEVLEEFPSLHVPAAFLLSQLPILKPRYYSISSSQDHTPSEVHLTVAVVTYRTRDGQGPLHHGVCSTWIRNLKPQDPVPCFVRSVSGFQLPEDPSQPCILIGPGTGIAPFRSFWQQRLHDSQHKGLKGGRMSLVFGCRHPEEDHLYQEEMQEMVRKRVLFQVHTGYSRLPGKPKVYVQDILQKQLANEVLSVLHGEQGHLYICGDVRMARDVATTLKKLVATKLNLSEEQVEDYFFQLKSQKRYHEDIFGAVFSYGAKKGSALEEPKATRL
Sequence of AT1 (h) (P30556 whole entry): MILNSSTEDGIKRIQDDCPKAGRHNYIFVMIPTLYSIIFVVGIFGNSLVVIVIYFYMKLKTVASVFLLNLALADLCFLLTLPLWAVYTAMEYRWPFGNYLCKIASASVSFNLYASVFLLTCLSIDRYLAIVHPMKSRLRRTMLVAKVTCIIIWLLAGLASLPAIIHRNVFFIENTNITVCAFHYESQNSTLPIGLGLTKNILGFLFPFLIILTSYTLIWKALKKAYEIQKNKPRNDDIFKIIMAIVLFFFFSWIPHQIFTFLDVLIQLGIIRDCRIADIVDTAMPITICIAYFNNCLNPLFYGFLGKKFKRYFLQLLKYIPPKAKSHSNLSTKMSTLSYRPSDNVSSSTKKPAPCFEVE
Sequence of H2 (P47747 whole entry): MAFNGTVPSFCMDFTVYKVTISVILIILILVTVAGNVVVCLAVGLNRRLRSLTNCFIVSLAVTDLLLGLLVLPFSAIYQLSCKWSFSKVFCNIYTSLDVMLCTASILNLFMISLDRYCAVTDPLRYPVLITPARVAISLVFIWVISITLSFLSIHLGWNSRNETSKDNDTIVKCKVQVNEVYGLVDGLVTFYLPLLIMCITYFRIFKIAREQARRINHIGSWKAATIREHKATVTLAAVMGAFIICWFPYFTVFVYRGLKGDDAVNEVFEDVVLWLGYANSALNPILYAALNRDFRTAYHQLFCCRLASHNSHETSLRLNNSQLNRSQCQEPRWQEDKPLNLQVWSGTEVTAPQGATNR

CC(O)C(O)C1CNc2nc(N)nc(N)c2N1 [H4-aminobiopterin, 2,4-diamino-5,6,7,8-tetrahydro-6-(L-erythro-1,2-dihydroxypropyl)-pteridine]
percent inhibition of control specific binding [1]: — (key: The symbol — indicates an inhibition of less than 10%.) | contraction relative to contraction caused by 124 mM K^+-Krebs solution [2]: clear concentration dependent contraction | percent inhibition of control specific binding [3]: — (key: The symbol — indicates an inhibition of less than 10%.) | percent inhibition of control specific binding [4]: — (key: The symbol — indicates an inhibition of less than 10%.) | percent inhibition of control activity [5]: — (key: The symbol — indicates an inhibition of less than 10%.) | percent inhibition of control specific binding [6]: — (key: The symbol — indicates an inhibition of less than 10%.) | contraction relative to contraction caused by 124 mM K^+-Krebs solution [7]: clear concentration dependent contraction | percent inhibition of control specific binding [8]: — (key: The symbol — indicates an inhibition of less than 10%.) | percent inhibition of control specific binding [9]: — (key: The symbol — indicates an inhibition of less than 10%.) | percent inhibition of control specific binding [10]: — (key: The symbol — indicates an inhibition of less than 10%.) | percent inhibition of control specific binding [11]: — (key: The symbol — indicates an inhibition of less than 10%.) | percent inhibition of control activity [12]: — (key: The symbol — indicates an inhibition of less than 10%.) | percent inhibition of control specific binding [13]: — (key: The symbol — indicates an inhibition of less than 10%.) | percent inhibition of control activity [14]: — (key: The symbol — indicates an inhibition of less than 10%.) | percent inhibition of control specific binding [15]: — (key: The symbol — indicates an inhibition of less than 10%.) | percent inhibition of control specific binding [16]: — (key: The symbol — indicates an inhibition of less than 10%.) | percent inhibition of control specific binding [17]: — (key: The symbol — indicates an inhibition of less than 10%.) | percent inhibition of control specific binding [18]: — (key: The symbol — indicates an inhibition of less than 10%.) | percent inhibition of control activity [19]: — (key: The symbol — indicates an inhibition of less than 10%.) | percent inhibition of control specific binding [20]: — (key: The symbol — indicates an inhibition of less than 10%.) | percent inhibition of control specific binding [21]: — (key: The symbol — indicates an inhibition of less than 10%.) | percent inhibition of control activity [22]: 12% | percent inhibition of control specific binding [23]: 16% | percent inhibition of control specific binding [24]: — (key: The symbol — indicates an inhibition of less than 10%.) | percent inhibition of control activity [25]: — (key: The symbol — indicates an inhibition of less than 10%.) | percent inhibition of control specific binding [26]: — (key: The symbol — indicates an inhibition of less than 10%.) | percent inhibition of control specific binding [27]: — (key: The symbol — indicates an inhibition of less than 10%.) | percent of inhibition of control activity [28]: 31% | percent inhibition of control specific binding [29]: — (key: The symbol — indicates an inhibition of less than 10%.) | percent inhibition of control specific binding [30]: — (key: The symbol — indicates an inhibition of less than 10%.) | percent inhibition of control specific binding [31]: — (key: The symbol — indicates an inhibition of less than 10%.) | percent inhibition of control specific binding [32]: — (key: The symbol — indicates an inhibition of less than 10%.) | percent inhibition of control specific binding [33]: — (key: The symbol — indicates an inhibition of less than 10%.) | percent inhibition of control specific binding [34]: 10% | percent inhibition of control specific binding [35]: — (key: The symbol — indicates an inhibition of less than 10%.) | percent inhibition of control activity [36]: — (key: The symbol — indicates an inhibition of less than 10%.) | percent inhibition of control activity [37]: 23% | percent inhibition of control specific binding [38]: — (key: The symbol — indicates an inhibition of less than 10%.) | percent inhibition of control activity [39]: — (key: The symbol — indicates an inhibition of less than 10%.) | percent inhibition of control specific binding [40]: — (key: The symbol — indicates an inhibition of less than 10%.) | percent inhibition of control activity [41]: — (key: The symbol — indicates an inhibition of less than 10%.) | percent inhibition of control activity [42]: — (key: The symbol — indicates an inhibition of less than 10%.) | percent inhibition of control specific binding [43]: — (key: The symbol — indicates an inhibition of less than 10%.) | percent inhibition of control activity [44]: — (key: The symbol — indicates an inhibition of less than 10%.) | percent inhibition of control specific binding [45]: — (key: The symbol — indicates an inhibition of less than 10%.) | percent inhibition of control specific binding [46]: — (key: The symbol — indicates an inhibition of less than 10%.) | percent inhibition of control specific binding [47]: — (key: The symbol — indicates an inhibition of less than 10%.) | percent inhibition of control specific binding [48]: — (key: The symbol — indicates an inhibition of less than 10%.) | percent inhibition of control specific binding [49]: — (key: The symbol — indicates an inhibition of less than 10%.) | stimulation of control activity [50]: 11 | percent inhibition of control specific binding [51]: — (key: The symbol — indicates an inhibition of less than 10%.) | percent inhibition of control activity [52]: — (key: The symbol — indicates an inhibition of less than 10%.) | percent inhibition of control activity [53]: 76% | percent inhibition of control specific binding [54]: — (key: The symbol — indicates an inhibition of less than 10%.) | percent inhibition of control activity [55]: — (key: The symbol — indicates an inhibition of less than 10%.) | percent inhibition of control activity [56]: — (key: The symbol — indicates an inhibition of less than 10%.) | percent inhibition of control specific binding [57]: 10%
